Measurements taken from US11104690B2, “Indazole derivatives useful as inhibitors of diacylglyceride O-acyltransferase 2” (Merck Sharp & Dohme Corp., priority 2016, dated 2021).

Target: Human DGAT2 (Homo sapiens (Human), UniProt Q96PD7)
Experiment: DGAT2 Enzymatic Activity Assay (triolein formation, LC/MS/MS)
Assay type: biochemical
Conditions: hDGAT2 Sf-9 membrane prep; 25 μM diolein, 10 μM oleoyl-CoA; room temperature
Procedure: Sf-9 insect cells were maintained in Grace's insect cell culture medium with 10% heated-inactivated fetal bovine serum, 1% Pluronic F-68 and 0.14 μg/m Kanamycine sulfate in Erlenmeyer flasks at 28° C. in a shaker incubator. After infection with untagged hDGAT2 baculovirus at multiplicity of infection (MOI) 0.1 for 48 hours, cells were harvested. Cell pellets were suspended in buffer containing 10 mM Tris-HC (pH 7.5), 1 mM EDTA (pH 8.0), 250 mM sucrose and Complete Protease Inhibitor Cocktail (Roche Diagnostics Corp., Indianapolis, Ill.), and sonicated on ice. Membrane fractions were isolated by ultracentrifugation (100,000×g pellet), resuspended in the same buffer, and frozen (−80° C.) for later use. The protein concentration was determined with the BCA Protein Assay kit (Pierce Biotechnology Inc., Rockford, Ill.). Expression of protein levels was analyzed by immunoblotting with goat polyclonal DGAT2 antibody C-15 and donkey anti-goat IgG HRP (Santa Cruz Biotechnology, Inc., Santa Cruz, Calif.) followed by detection with ECL reagent (GE Healthcare, Piscataway, N.J.).
LC/MS/MS analyses were performed using Thermal Fisher's LX4-TSQ Vantage system. This system consists of an Agilent binary high-performance liquid chromatography (HPLC) pumps and a TSQ Vantage triple quadrupole MS/MS instrument. For each sample, 2 μL samples from the top organic layer of in-plate liquid-liquid extraction were injected onto a Thermo Betabasic C4 column (2.1 mm×20 mm, 5 μm particle size). The samples were then eluted using the following conditions; mobile phase: MeOH/water with 0.1% ammonium format=92/8 (v/v), flow rate: 1 mL/min, temperature: 25 C. Data was acquired in positive mode using a heated electrospray ionization (HESI) interface. The operational parameters for the TSQ Vantage MS/MS instrument were a spray voltage of 3000 V, capillary temperature of 280° C., vaporizer temperature 400° C., shealth gas 60 arbitrary unit, Aux gas 40 arbitrary units, S-lens 113 and collision gas 0.16 Pascals. […] (SRM) chromatograms of triolein (Q1: 902.9>Q3:602.3) and internal standard ([…]) were collected for 40 sec. The peak area was integrated by Xcalibur Quan software. The ratio between the triolein generated in the reaction and spiked in internal standard was used to generate percentage inhibition and IC50 values. Compound percentage inhibition was calculated by the following formula: Inhibition %=1−[(compound response−low control)/(high control−low control)]×100%. Potent compounds were titrated and IC50 were calculated by 4 parameter sigmoidal curve fitting formula.
DGAT2 activity was determined by measuring the amount of enzymatic product triolein (1,2,3-Tri(cis-9-octadecenoyl)glycerol) using the membrane prep mentioned above. The assay was carried out in deep well 384 plates in a final volume of 40 μL at room temperature. The assay mixture contained the following: assay buffer (100 mM Tris.Cl, pH 7.0, 20 mM MgCl2, 5% ethanol), 25 μM of diolein, 10 μM of oleoyl-CoA and 10 ng/μL of DGAT2 membrane.

Human DGAT2, sequence (Q96PD7 whole entry): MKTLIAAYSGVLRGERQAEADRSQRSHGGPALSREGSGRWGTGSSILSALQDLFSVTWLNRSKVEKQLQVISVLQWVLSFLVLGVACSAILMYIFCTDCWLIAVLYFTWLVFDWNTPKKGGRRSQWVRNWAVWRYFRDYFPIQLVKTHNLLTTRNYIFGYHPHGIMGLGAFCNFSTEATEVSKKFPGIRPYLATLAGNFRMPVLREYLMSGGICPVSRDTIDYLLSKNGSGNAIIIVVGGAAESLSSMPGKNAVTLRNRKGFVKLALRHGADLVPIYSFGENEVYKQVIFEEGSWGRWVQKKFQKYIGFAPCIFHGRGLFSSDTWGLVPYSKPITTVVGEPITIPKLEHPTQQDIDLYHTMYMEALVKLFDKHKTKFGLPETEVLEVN

Cn1ccc(-n2nc(-c3ccccc3Cl)c3ccc(C(=O)NC4(C)CCS(=O)(=O)C4)cc32)n1 (racemic) [Example 184, 3-(2-chlorophenyl)-N-(3-methyl-1,1-dioxidotetrahydrothiophen-3-yl)-1-(1-methyl-1H-pyrazol-3-yl)-1H-indazole-6-carboxamide]
IC50: 201 nM

CC1(NC(=O)c2ccc3c(-c4cccc(C5CC5)c4)nn(-c4ccc(F)cn4)c3c2)CCS(=O)(=O)C1 (single isomer, unassigned) [Example 125-B, 3-(3-cyclopropylphenyl)-1-(5-fluoropyridin-2-yl)-N-(3-methyl-1,1-dioxidotetrahydrothiophen-3-yl)-1H-indazole-6-carboxamide]
IC50: 3 nM

O=C(NC1CCS(=O)(=O)C1)c1ccc2c(-c3ccccc3Cl)nn(-c3ccc(F)cc3)c2c1 (single isomer, unassigned) [Example 2-B, 3-(2-chlorophenyl)-N-(1,1-dioxidotetrahydrothiophen-3-yl)-1-(4-fluorophenyl)-1H-indazole-6-carboxamide]
IC50: 303 nM

O=C(NCc1ccccn1)c1ccc2c(-c3ccccc3Cl)nn(-c3ccc(F)cc3)c2c1 [Example 32, 3-(2-chlorophenyl)-1-(4-fluorophenyl)-N-(pyridin-2-ylmethyl)-1H-indazole-6-carboxamide]
IC50: 495 nM

O=C(NCCS(=O)(=O)Nc1ccccc1)c1ccc2c(-c3ccccc3Cl)nn(-c3ccc(F)cc3)c2c1 [Example 56, 3-(2-chlorophenyl)-1-(4-fluorophenyl)-N-[2-(phenylsulfamoyl)ethyl]-1H-indazole-6-carboxamide]
IC50: 22 nM

CC1(NC(=O)c2ccc3c(-c4cccnc4F)nn(-c4ccc(F)cc4)c3c2)CCS(=O)(=O)C1 (single isomer, unassigned) [Example 154-A, 1-(4-fluorophenyl)-3-(2-fluoropyridin-3-yl)-N-(3-methyl-1,1-dioxidotetrahydrothiophen-3-yl)-1H-indazole-6-carboxamide]
IC50: 17 nM

O=C(NC1CCS(=O)(=O)C1)c1ccc2c(-c3ccccc3Cl)nn(-c3ccc(F)cc3)c2c1 (single isomer, unassigned) [Example 2-A]
IC50: 12 nM

CC1(NC(=O)c2ccc3c(-c4cc(C#N)ccc4Cl)nn(-c4ccc(F)cc4)c3c2)CCS(=O)(=O)C1 (single isomer, unassigned) [Example 119-A, 3-(2-chloro-5-cyanophenyl)-1-(4-fluorophenyl)-N-(3-methyl-1,1-dioxidotetrahydrothiophen-3-yl)-1H-indazole-6-carboxamide]
IC50: 8.4 nM

CC(Cc1ccccn1)NC(=O)c1ccc2c(-c3ccccc3Cl)nn(-c3ccc(F)cc3)c2c1 (racemic) [Example 112, 3-(2-chlorophenyl)-1-(4-fluorophenyl)-N-(1-methyl-2-pyridin-2-ylethyl)-1H-indazole-6-carboxamide]
IC50: 593 nM

O=C(NC(CO)(CO)CO)c1ccc2c(-c3ccccc3Cl)nn(-c3ccc(F)cc3)c2c1 [Example 85, 3-(2-chlorophenyl)-1-(4-fluorophenyl)-N-[2-hydroxy-1,1-bis(hydroxymethyl)ethyl]-1H-indazole-6-carboxamide]
IC50: 432 nM

CC1(NC(=O)c2ccc3c(-c4cccc(C(C)(C)O)c4)nn(-c4ccc(F)cc4)c3c2)CCS(=O)(=O)C1 (racemic) [Example 150, 1-(4-fluorophenyl)-3-[3-(1-hydroxy-1-methylethyl)phenyl]-N-(3-methyl-1,1-dioxidotetrahydrothiophen-3-yl)-1H-indazole-6-carboxamide]
IC50: 311 nM

O=C(NCCS(=O)(=O)Nc1cccnc1)c1ccc2c(-c3ccccc3Cl)nn(-c3ccc(F)cc3)c2c1 [Example 60, 3-(2-chlorophenyl)-1-(4-fluorophenyl)-N-[2-(pyridin-3-ylsulfamoyl)ethyl]-1H-indazole-6-carboxamide]
IC50: 16 nM

CC[C@H](C)[C@@H](CO)NC(=O)c1ccc2c(-c3ccccc3Cl)nn(-c3ccc(F)cc3)c2c1 [Example 103, 3-(2-chlorophenyl)-1-(4-fluorophenyl)-N-[(1S,2S)-1-(hydroxymethyl)-2-methylbutyl]-1H-indazole-6-carboxamide]
IC50: 31 nM

CC(NC(=O)c1ccc2c(-c3ccccc3Cl)nn(-c3ccc(F)cc3)c2c1)C(O)C(F)(F)F (stereo not shown) [Example 81, 3-(2-chlorophenyl)-1-(4-fluorophenyl)-N-(3,3,3-trifluoro-2-hydroxy-1-methylpropyl)-1H-indazole-6-carboxamide]
IC50: 88 nM

CC1(NC(=O)c2ccc3c(-c4cccc(C#N)c4)nn(-c4ccc(F)cn4)c3c2)CCS(=O)(=O)C1 (single isomer, unassigned) [Example 178-B, 3-(3-cyanophenyl)-1-(5-fluoropyridin-2-yl)-N-(3-methyl-1,1-dioxidotetrahydrothiophen-3-yl)-1H-indazole-6-carboxamide]
IC50: 32 nM

O=C(NC1(CO)CC1)c1ccc2c(-c3ccccc3Cl)nn(-c3ccc(F)cc3)c2c1 [Example 61, 3-(2-chlorophenyl)-1-(4-fluorophenyl)-N-[1-(hydroxymethyl)cyclopropyl]-1H-indazole-6-carboxamide]
IC50: 73 nM

O=C1CC(NC(=O)c2ccc3c(-c4ccccc4Cl)nn(-c4ccc(F)cc4)c3c2)C(=O)N1 (racemic) [Example 57, 3-(2-chlorophenyl)-N-(2,5-dioxopyrrolidin-3-yl)-1-(4-fluorophenyl)-1H-indazole-6-carboxamide]
IC50: 669 nM

CC1(NC(=O)c2ccc3c(-c4cccc(OC(F)F)c4)nn(-c4ccc(F)cn4)c3c2)CCS(=O)(=O)C1 (single isomer, unassigned) [Example 128-A, 3-[3-(difluoromethoxy)phenyl]-1-(5-fluoropyridin-2-yl)-N-(3-methyl-1,1-dioxidotetrahydrothiophen-3-yl)-1H-indazole-6-carboxamide]
IC50: 3.3 nM

O=C(NC1CCS(=O)(=O)C1)c1ccc2c(-c3c(F)cccc3F)nn(-c3ccc(F)cc3)c2c1 (single isomer, unassigned) [Example 132-A, 3-(2,6-difluorophenyl)-N-(1,1-dioxidotetrahydro-thiophen-3-yl)-1-(4-fluorophenyl)-1H-indazole-6-carboxamide]
IC50: 25 nM

O=C(NC1COC1)c1ccc2c(-c3ccccc3Cl)nn(-c3ccc(F)cc3)c2c1 [Example 21, 3-(2-chlorophenyl)-1-(4-fluorophenyl)-N-oxetan-3-yl-1H-indazole-6-carboxamide]
IC50: 873 nM

O=C(NC1CCS(=O)(=O)C1)c1ccc2c(-c3ccccc3Cl)nn(Cc3ccccc3)c2c1 (racemic) [Example 167, (±)-1-Benzyl-3-(2-chlorophenyl-N-(1,1-dioxidotetrahydrothiophen-3-yl)-1-indazole-6-carboxamide]
IC50: 383 nM

CC1(NC(=O)c2ccc3c(-c4ccccc4Cl)nn(-c4nnc(C(C)(C)C)s4)c3c2)CCS(=O)(=O)C1 (racemic) [Example 183, 1-(5-tert-butyl-1,3,4-thiadiazol-2-yl)-3-(2-chlorophenyl)-N-(3-methyl-1,1-dioxidotetrahydrothiophen-3-yl)-1H-indazole-6-carboxamide]
IC50: 460 nM

N#Cc1ccc(Cl)c(-c2nn(-c3ccc(F)cc3)c3cc(C(=O)NC4(CO)CCC4)ccc23)c1 [Example 118, 3-(2-chloro-5-cyanophenyl)-1-(4-fluorophenyl)-N-[1-(hydroxymethyl)cyclobutyl]-1H-indazole-6-carboxamide]
IC50: 5.5 nM

C[C@@H](NC(=O)c1ccc2c(-c3ccccc3Cl)nn(-c3ccc(F)cc3)c2c1)[C@H](O)c1ccccc1 [Example 107, 3-(2-chlorophenyl)-1-(4-fluorophenyl)-N-[(1R,2R)-2-hydroxy-1-methyl-2-phenylethyl]-1H-indazole-6-carboxamide]
IC50: 305 nM

CC(C)(C)OC(=O)N1CCS(=O)(=O)CC(NC(=O)c2ccc3c(-c4ccccc4Cl)nn(-c4ccc(F)cc4)c3c2)C1 (racemic) [Example 91, tert-butyl 6-({[3-(2-chlorophenyl)-1-(4-fluorophenyl)-1H-indazol-6-yl]carbonyl}amino)-1,4-thiazepane-4-carboxylate 1,1-dioxide]
IC50: 572 nM
